The values that follow come from patent US12522594B2, “2-heteroaryl-3-oxo-2,3-dihydropyridazine-4-carboxamides for the treatment of cancer” (Deutsches Krebsforschungszentrum, priority 2017, dated 2026).

Experiment [1] has as its target T1, AHR (Homo sapiens, UniProt P35869).
T1 sequence (P35869 11-848): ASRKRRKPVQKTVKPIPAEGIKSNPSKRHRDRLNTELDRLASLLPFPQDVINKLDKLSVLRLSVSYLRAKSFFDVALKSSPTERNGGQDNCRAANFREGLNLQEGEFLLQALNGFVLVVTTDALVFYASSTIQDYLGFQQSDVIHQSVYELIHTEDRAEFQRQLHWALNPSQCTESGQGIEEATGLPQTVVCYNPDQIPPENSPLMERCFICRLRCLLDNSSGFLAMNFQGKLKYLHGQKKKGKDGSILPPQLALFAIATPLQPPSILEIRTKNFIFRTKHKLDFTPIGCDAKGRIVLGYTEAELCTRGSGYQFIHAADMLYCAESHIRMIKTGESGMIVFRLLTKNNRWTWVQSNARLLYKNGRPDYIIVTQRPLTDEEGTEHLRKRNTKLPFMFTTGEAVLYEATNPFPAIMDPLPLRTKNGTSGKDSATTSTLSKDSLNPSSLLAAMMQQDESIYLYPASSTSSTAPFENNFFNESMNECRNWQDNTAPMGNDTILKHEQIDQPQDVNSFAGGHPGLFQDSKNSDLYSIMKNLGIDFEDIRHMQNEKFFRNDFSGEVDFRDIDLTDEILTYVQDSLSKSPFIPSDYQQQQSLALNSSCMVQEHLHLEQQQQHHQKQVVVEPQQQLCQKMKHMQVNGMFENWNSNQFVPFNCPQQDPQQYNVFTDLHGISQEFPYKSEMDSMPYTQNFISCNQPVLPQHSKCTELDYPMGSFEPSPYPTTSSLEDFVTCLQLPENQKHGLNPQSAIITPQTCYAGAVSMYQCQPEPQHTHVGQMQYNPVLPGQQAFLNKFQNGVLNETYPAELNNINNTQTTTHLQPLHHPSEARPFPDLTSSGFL
The experiment can be described thus: In vitro assay 2: agonism in human cell line (transactivation assay, U87 cells, DRE firefly luciferase reporter). As to conditions: no kynurenic acid, 20 hours, read-out: Assay 2: AHR-luc Hum Agonism IC50. Set-up: host or cells: U87 glioblastoma cells, stably transfected with DRE firefly luciferase and renilla reporter constructs. The class given is cell-based. The essentials: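 U87 glioblastoma cells with endogenous AHR, stably carrying DRE-driven firefly luciferase and constitutive renilla reporters. 300 uM kynurenic acid served as positive activation control; data normalized to positive and negative controls.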
In general terms: In a reporter assay the amount or activity of a reporter protein is the signal.

Experiment [2] addresses T1, AHR. The experiment can be described thus: In vitro assay 1: antagonism in human cell line (transactivation assay, U87 cells prestimulated with kynurenic acid, DRE firefly luciferase reporter). The class given is cell-based. Set-up: host or cells: U87 glioblastoma cells, stably transfected with DRE firefly luciferase and renilla reporter constructs. As to conditions: 150 uM kynurenic acid, 20 hours, read-out: Assay 1: AHR-luc Hum Antagonism IC50. The essentials:
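U87 glioblastoma cells with endogenous AHR, stably carrying a DRE-driven firefly luciferase reporter and a constitutive renilla reporter. Cells prestimulated with the AHR agonist kynurenic acid before compound addition; data normalized to positive and negative controls.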

What is called IC50 is the concentration needed to halve the response being measured. For the compound `O=C(N[C@H]1CCC[C@@H]1O)c1cc(-c2ccc(Cl)cc2)nn(-c2ccnnc2)c1=O` [Example 174, 3-(4-Chlorophenyl)-N-[(1S,2S)-2-hydroxycyclopentyl]-6-oxo-6H-1,4′-bipyridazine-5-carboxamide], the figures for the IC50 on AHR [1] and on AHR [2] were above 20000 nM and 61.5 nM, respectively.
For `Cn1cc(-n2nc(-c3ccc(CF)cc3)cc(C(=O)N[C@H](CO)C(F)(F)F)c2=O)cn1` [Example 275, 6-[4-(Fluoromethyl)phenyl]-2-(1-methyl-1H-pyrazol-4-yl)-3-oxo-N-[(2R)-1,1,1-trifluoro-3-hydroxypropan-2-yl]-2,3-dihydropyridazine-4-carboxamide], in that order: above 20000 nM and 130 nM.
Consider `O=C(N[C@H](CO)CF)c1cc(-c2ccc(Cl)cc2)nn(-c2cnsc2)c1=O` [Example 201, 6-(4-Chlorophenyl)-N-[(2R)-1-fluoro-3-hydroxypropan-2-yl]-3-oxo-2-(1,2-thiazol-4-yl)-2,3-dihydropyridazine-4-carboxamide], for which the IC50 is above 20000 nM at AHR [1] and 0.823 nM at AHR [2].
As to `COCC(O)CNC(=O)c1cc(-c2ccc(Cl)cc2)nn(-c2cnn(C)c2)c1=O` (single isomer, unassigned; (+)) [Example 26, (+)-6-(4-Chlorophenyl)-N-(2-hydroxy-3-methoxypropyl)-2-(1-methyl-1H-pyrazol-4-yl)-3-oxo-2,3-dihydropyridazine-4-carboxamide], the IC50 on AHR [1] was above 20000 nM; at AHR [2], 87.5 nM.
For `O=C(NCC(O)C(F)F)c1cc(-c2ccc(C(F)(F)F)cc2)nn(-c2cccnc2)c1=O` (single isomer, unassigned; (+)) [Example 247, (+)-N-(3,3-Difluoro-2-hydroxypropyl)-3-oxo-2-(pyridin-3-yl)-6-[4-(trifluoromethyl)phenyl]-2,3-dihydropyridazine-4-carboxamide], in that order: above 20000 nM and 13.9 nM.
For the compound `CC(C)(O)CNC(=O)c1cc(-c2ccc(OC(F)F)cc2)nn(-c2cccnc2)c1=O` [Example 331, 6-[4-(Difluoromethoxy)phenyl]-N-(2-hydroxy-2-methylpropyl)-3-oxo-2-(pyridin-3-yl)-2,3-dihydropyridazine-4-carboxamide], the results for the IC50 at AHR [1] and at AHR [2] were above 20000 nM and 234 nM, respectively.
The like results for `C[C@@H](CO)NC(=O)c1cc(-c2ccc(C(F)F)nc2)nn(-c2cccnc2)c1=O` [Example 180, 6-[6-(Difluoromethyl)pyridin-3-yl]-N-[(2S)-1-hydroxypropan-2-yl]-3-oxo-2-(pyridin-3-yl)-2,3-dihydropyridazine-4-carboxamide] were, in that order, above 20000 nM and 794 nM.
The like results for `O=C(NC(CO)CO)c1cc(-c2ccc(Cl)cc2)nn(-c2cccnc2)c1=O` [Example 70, 6-(4-Chlorophenyl)-N-(1,3-dihydroxypropan-2-yl)-3-oxo-2-(pyridin-3-yl)-2,3-dihydropyridazine-4-carboxamide] were, in that order, above 20000 nM and 159 nM.
For `Cn1cc(-n2nc(-c3ccc(OC(F)(F)F)cc3)cc(C(=O)N[C@@H]3COC[C@H]3O)c2=O)cn1` (single isomer, unassigned; enantiomer 2) [Example 65, N-[(trans)-4-Hydroxytetrahydrofuran-3-yl]-2-(1-methyl-1H-pyrazol-4-yl)-3-oxo-6-[4-(trifluoromethoxy)phenyl]-2,3-dihydropyridazine-4-carboxamide, Enantiomer 2], the IC50 at AHR [1] is above 20000 nM; on AHR [2], 25.5 nM.
The like results for `Cn1cc(-n2nc(-c3ccc(Cl)cc3)cc(C(=O)NC(CO)CO)c2=O)cn1` [Example 31, 6-(4-Chlorophenyl)-N-(1,3-dihydroxypropan-2-yl)-2-(1-methyl-1H-pyrazol-4-yl)-3-oxo-2,3-dihydropyridazine-4-carboxamide] were, in that order, above 20000 nM and 244 nM.
For `C[C@@H](CO)NC(=O)c1cc(-c2ccc(N(C)C)cc2)nn(-c2cccnc2)c1=O` [Example 191, 6-[4-(Dimethylamino)phenyl]-N-[(2S)-1-hydroxypropan-2-yl]-3-oxo-2-(pyridin-3-yl)-2,3-dihydropyridazine-4-carboxamide], the 50% inhibitory concentration (IC50) at AHR [1] was above 20000 nM; on AHR [2] it was 3.35 nM.
Turning to `Cn1cc(-n2nc(-c3ccc(Cl)cc3)cc(C(=O)N[C@H]3CCCC[C@H]3O)c2=O)cn1` [Example 48, 6-(4-Chlorophenyl)-N-[(1S,2R)-2-hydroxycyclohexyl]-2-(1-methyl-1H-pyrazol-4-yl)-3-oxo-2,3-dihydropyridazine-4-carboxamide], the IC50 is above 20000 nM at AHR [1] and 2.49 nM on AHR [2].
With `C[C@H](NC(=O)c1cc(-c2ccc(CF)cc2)nn(-c2cnn(C)c2)c1=O)C(C)(C)O` [Example 284, 6-[4-(Fluoromethyl)phenyl]-N-[(2S)-3-hydroxy-3-methylbutan-2-yl]-2-(1-methyl-1H-pyrazol-4-yl)-3-oxo-2,3-dihydropyridazine-4-carboxamide], the IC50 is above 20000 nM at AHR [1] and 571 nM on AHR [2].
For `O=C(N[C@H]1CCCC(F)(F)[C@@H]1O)c1cc(-c2ccc(Cl)cc2)nn(-c2cccnc2)c1=O` (racemic) [Example 143, 6-(4-Chlorophenyl)-N-[(trans)-3,3-difluoro-2-hydroxycyclohexyl]-3-oxo-2-(pyridin-3-yl)-2,3-dihydropyridazine-4-carboxamide], in that order: above 20000 nM and 9.61 nM.
The like results for `O=C(NC(CO)C1CC1)c1cc(-c2ccc(Cl)cc2)nn(-c2cccnc2)c1=O` (single isomer, unassigned; (+)) [Example 91, (+)-6-(4-Chlorophenyl)-N-(1-cyclopropyl-2-hydroxyethyl)-3-oxo-2-(pyridin-3-yl)-2,3-dihydropyridazine-4-carboxamide] were, in that order, above 20000 nM and 48.1 nM.
In the case of `O=C(N[C@H]1CCCC(F)(F)[C@@H]1O)c1cc(-c2ccc(OC(F)(F)F)cc2)nn(-c2cccnc2)c1=O` (single isomer, unassigned; enantiomer 1) [Example 141, N-[(trans)-3,3-Difluoro-2-hydroxycyclohexyl]-3-oxo-2-(pyridin-3-yl)-6-[4-(trifluoromethoxy)phenyl]-2,3-dihydropyridazine-4-carboxamide, Enantiomer 1], the IC50 was above 20000 nM at AHR [1] and 148 nM on AHR [2].
As for `O=C(N[C@@H]1CC[C@@H]1O)c1cc(-c2ccc(Cl)cc2)nn(-c2cccnc2)c1=O` (relative stereo) [Example 258, 6-(4-Chlorophenyl)-N-cis-2-hydroxycyclobutyl-3-oxo-2-(pyridin-3-yl)-2,3-dihydropyridazine-4-carboxamide], the IC50 is above 20000 nM on AHR [1] and 27.5 nM at AHR [2].
The like results for `C[C@@H](NC(=O)c1cc(-c2ccc(C(F)(F)F)nc2)nn(-c2cncc(F)c2)c1=O)C(C)(C)O` [Example 342, 2-(5-Fluoropyridin-3-yl)-N-[(2R)-3-hydroxy-3-methylbutan-2-yl]-3-oxo-6-[6-(trifluoromethyl)pyridin-3-yl]-2,3-dihydropyridazine-4-carboxamide] were, in that order, above 20000 nM and 132 nM.
For `CC(NC(=O)c1cc(-c2ccc(Cl)cc2)nn(-c2cccnc2)c1=O)C(O)C(F)(F)F` (single isomer, unassigned) [Example 299, 6-(4-Chlorophenyl)-3-oxo-2-(pyridin-3-yl)-N-(4,4,4-trifluoro-3-hydroxybutan-2-yl)-2,3-dihydropyridazine-4-carboxamide], the IC50 at AHR [1] was above 20000 nM; on AHR [2], 13.3 nM.
The like results for `Cn1cc(-n2nc(-c3ccc(C(F)F)cc3)cc(C(=O)N[C@@H]3COC[C@@H]3O)c2=O)cn1` (single isomer, unassigned) [Example 320, 6-[4-(Difluoromethyl)phenyl]-N-[(cis)-4-hydroxytetrahydrofuran-3-yl]-2-(1-methyl-1H-pyrazol-4-yl)-3-oxo-2,3-dihydropyridazine-4-carboxamide] were, in that order, above 20000 nM and 44.1 nM.
With `C[C@@H](NC(=O)c1cc(-c2ccc(Cl)cc2)nn(-c2cnsc2)c1=O)C(C)(C)O` [Example 326, 6-(4-Chlorophenyl)-N-[(2R)-3-hydroxy-3-methylbutan-2-yl]-3-oxo-2-(1,2-thiazol-4-yl)-2,3-dihydropyridazine-4-carboxamide], the IC50 on AHR [1] was above 20000 nM; at AHR [2] it was 0.504 nM.
